Molecular target: T1, hSTING (Homo sapiens, UniProt Q86WV6, G230A/H232R/R293Q/R71H)
T1 construct: host or cells: THP1-Dual KO-IFNAR2 cells
Test: STING reporter assay (luciferase) in THP1-Dual KO-IFNAR2 cells stimulated with 2′3′cGAMP
Type: cell-based
Conditions: 2′3′cGAMP 15 μM, 24 h, class symbols
How it was run: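 THP1-Dual KO-IFNAR2 cells (2×10E6 cells/mL) were treated with compound at 0.0017-100 μM final plus 15 μM final 2′3′cGAMP delivered with Lipofectamine 2000. After 24 h at 37° C., secreted luciferase in supernatant was read by QUANTI-Luc luminescence and EC50 values were fitted.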

T1 sequence (Q86WV6 whole entry R71H/G230A/H232R/R293Q): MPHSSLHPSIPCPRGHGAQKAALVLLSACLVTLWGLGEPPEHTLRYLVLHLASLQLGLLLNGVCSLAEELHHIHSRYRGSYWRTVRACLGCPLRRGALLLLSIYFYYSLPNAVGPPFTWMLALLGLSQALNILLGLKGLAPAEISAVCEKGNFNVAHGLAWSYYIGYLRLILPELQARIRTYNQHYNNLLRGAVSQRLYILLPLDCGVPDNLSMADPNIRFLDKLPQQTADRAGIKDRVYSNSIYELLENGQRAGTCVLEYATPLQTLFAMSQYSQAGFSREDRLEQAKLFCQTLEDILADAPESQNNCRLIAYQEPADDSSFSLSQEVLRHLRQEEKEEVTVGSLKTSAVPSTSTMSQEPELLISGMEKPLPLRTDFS

SMILES	EC50 [nM]
COc1cnc2[nH]cc(NC(=O)Nc3cnc(N4CCC(F)(F)CC4)c(Cl)c3)c2c1 [Compound 181, 1-(5-chloro-6-(4,4-difluoropiperidin-1-yl)pyridin-3-yl)-3-(5-methoxy-1H-pyrrolo[2,3-b]pyridin-3-yl)urea]	200 to 1000
O=C(Nc1cnc(C2CCN(CC(F)(F)F)C2)c(Cl)c1)Nc1c[nH]c2cccnc12 (stereo not shown) [Compound 216, 1-(5-chloro-6-(1-(2,2,2-trifluoroethyl)pyrrolidin-3-yl)pyridin-3-yl)-3-(1H-pyrrolo[3,2-b]pyridin-3-yl)urea]	1000 to 5000
Cc1cc(NC(=O)Nc2c[nH]c3ncc(F)cc23)cnc1N1CC2(C1)CC(F)(F)C2 [Compound 162, 1-(6-(6,6-difluoro-2-azaspiro[3.3]heptan-2-yl)-5-methylpyridin-3-yl)-3-(5-fluoro-1H-pyrrolo[2,3-b]pyridin-3-yl)urea]	200 to 1000
Cc1cc(NC(=O)Nc2c[nH]c3ncc(F)cc23)cnc1N1CCC2(CC1)CC2 [Compound 192, 1-(5-fluoro-1H-pyrrolo[2,3-b]pyridin-3-yl)-3-(5-methyl-6-(6-azaspiro[2.5]octan-6-yl)pyridin-3-yl)urea]	40 to 200

The remaining lines, values ahead:

EC50 [nM]	SMILES
40 to 200	Cc1cc(NC(=O)Nc2c[nH]c3ncc(F)cc23)cnc1N1CCC(F)(F)CC1 [Compound 198, 1-(6-(4,4-difluoropiperidin-1-yl)-5-methylpyridin-3-yl)-3-(5-fluoro-1H-pyrrolo[2,3-b]pyridin-3-yl)urea]
5000 to 100000	CN(C)c1ccc2[nH]cc(NC(=O)Nc3cnc(N4CCC(F)(F)CC4)c(F)c3)c2n1 [Compound 175, 1-(6-(4,4-difluoropiperidin-1-yl)-5-fluoropyridin-3-yl)-3-(5-(dimethylamino)-1H-pyrrolo[3,2-b]pyridin-3-yl)urea]
200 to 1000	COc1ccc2[nH]cc(NC(=O)Nc3cnc(N4CC(F)(F)C4)c(Cl)c3)c2n1 [Compound 231, 1-(5-chloro-6-(3,3-difluoroazetidin-1-yl)pyridin-3-yl)-3-(5-methoxy-1H-pyrrolo[3,2-b]pyridin-3-yl)urea]

Reference: patent US20230115274A1, “COMPOUNDS AND COMPOSITIONS FOR TREATING CONDITIONS ASSOCIATED WITH STING ACTIVITY” (IFM Due, Inc., priority 2019, published 2023)
